# From paper PMC10574767, “Extractives from Artemisia afra with Anti-Bacterial and Anti-Fungal Properties” (Plants, 2023)
# Where two headings read alike, the source gives them in different places.
# What was measured:
# [1] = system: HeLa cancer cells; parameters: method as in doi:10.1016/j.sajb.2015.08.016; details: dose-dependent cytotoxicity; cited from earlier work
# [2] = system: S. aureus; parameters: method as in PMID 24575401; details: cited from earlier work
# [3] = system: B. subtilis; parameters: method as in PMID 24575401; details: cited from earlier work
# [4] = system: Salmonella sp.; parameters: method as in PMID 24575401; details: cited from earlier work
# [5] = system: normal human primary fibroblasts; parameters: method as in ref 66 = [66]; 66. NCCLS 2007 Available online: http://www.nccls.org (accessed on 15 March 2022); details: cited from earlier work
# [6] = system: Escherichia coli ATCC 25922; assay: Serial dilution microplate MIC; type: cell-based; details: Table 2; for MIC: Escherichia coli, ATCC25922, isolated compounds, read-out: Minimum inhibitory concentration (MIC) E. coli; for Selectivity index E. coli: in brackets, Vero LC50 vs MIC
# Description: (§1) The MIC value of the plant extracts and isolated compounds against one fungal and five bacterial strains (Salmonella Typhimurium ATCC 39183, Escherichia coli ATCC 25922, Pseudomonas aeruginosa ATCC 27853, Staphylococcus aureus ATCC 29213, Enterococcus faecalis ATCC 29212, and fungi culture, Candida albicans ATCC 10231) was assessed in triplicate using the serial dilution microplate method; acetone and DMSO were used as solvents. Bacterial cultures were grown in Mueller Hinton broth (Sigma Aldrich, St. Louis, MO, USA) overnight and adjusted to McFarland standard 1 (1 × 10^8 CFU/mL). Then, 100 µL of samples were transferred into the first well of a sterile 96-well microtiter plate, which contained 100 µL of water and a 1:1 serial dilution with sterilized distilled water was carried out. In each well, 100 µL of appropriately adjusted fungal or bacterial cultures were added, and the bacteria were subjected to final concentrations of 250–3.9 μg/mL for pure compounds and 2.5–0.02 mg/mL for crude extracts. Amphotericin-B and Gentamicin (Virbac, Carros, France) served as positive controls for fungi and bacteria, respectively. For sterility, water served as control, while acetone served as a negative control. The microplates were then incubated for 24 h at 37 °C. Following incubation, 40 µL of 0.2 mg/mL p-iodonitrotetrazolium violet (INT, Sigma Aldrich) dissolved in water (hot) was added to the wells before being incubated at 37 °C for another 2 h. In the case of fungi, the INT was added before incubation. The MIC was measured visually as the lowest concentration of the compounds/extracts that inhibited proliferation.
# [7] = system: Staphylococcus aureus ATCC 29213; assay: Serial dilution microplate MIC; type: cell-based; details: Table 2; for MIC: Staphylococcus aureus, read-out: Minimum inhibitory concentration (MIC) S. aureus; for Selectivity index S. aureus: in brackets, Vero LC50 vs MIC
# Description: as §1
# [8] = system: Enterococcus faecalis ATCC 29212; assay: Serial dilution microplate MIC; type: cell-based; details: Table 2; for MIC: Enterococcus faecalis, read-out: Minimum inhibitory concentration (MIC) E. faecalis; for Selectivity index E. faecalis: in brackets, Vero LC50 vs MIC
# Description: as §1
# [9] = system: Salmonella Typhimurium ATCC 39183; assay: Serial dilution microplate MIC; type: cell-based; details: for MIC: Salmonella enterica; for Selectivity index S. Typhimurium: in brackets, Vero LC50 vs MIC
# Description: as §1
# [10] = system: Pseudomonas aeruginosa ATCC 27853; assay: Serial dilution microplate MIC; type: cell-based; details: Table 2; for MIC: Pseudomonas aeruginosa, read-out: Minimum inhibitory concentration (MIC) P. aeruginosa; for Selectivity index P. aeruginosa: in brackets, Vero LC50 vs MIC
# Description: as §1
# [11] = system: E. faecalis; parameters: method as in doi:10.1590/0102-695X20142413348; details: cited from earlier work
# [12] = system: Candida albicans ATCC 10231; assay: Serial dilution microplate MIC (fungi); type: cell-based; details: Table 2; for MIC: Candida albicans, read-out: Minimum inhibitory concentration (MIC) C. albicans; for Selectivity index C. albicans: in brackets, Vero LC50 vs MIC
# Description: as §1
# [13] = system: HepG2 cells; parameters: method as in ref 66 = [66]; 66. NCCLS 2007 Available online: http://www.nccls.org (accessed on 15 March 2022); details: cited from earlier work
# [14] = system: S. aureus, MRSA, Proteus mirabilis, S. typhi, K. pneumoniae, E. coli, Bacillus subtilis, C. albicans and C. tropicalis; details: 200µg/mL; cited from earlier work
# [15] = system: P. aeruginosa; parameters: method as in doi:10.1590/0102-695X20142413348; details: cited from earlier work
# [16] = in vitro
# Description: Cytotoxicity of compounds and extracts was tested against mammalian cells using the MTT assay. MCF-7 cancer cells were grown in a 5% CO2 incubator in Dulbecco’s Modified Eagle’s Medium (DMEM, Highveld Biological, Johannesburg, South Africa) supplemented with 10% fetal calf serum (Adcock-Ingram, Johannesburg, South Africa) and 1% penicillin-streptomycin (10,000 U/mL and 10 mg/mL streptomycin, Sigma Aldrich). In a 5% CO2 incubator, Vero cells were grown in a minimal essential medium (MEM, Highveld Biological, South Africa) supplemented with 5% fetal calf serum (Adcock-Ingram) and 0.1% gentamicin (Virbac). Cell suspensions were obtained from 70–80% confluent monolayer cultures and were plated in 96-well cell culture plates at a density of 1 × 10^4. Plates were incubated in a 5% CO2 incubator for 24 h at 37 °C. The cells were exposed to the extracts or compounds dissolved in the media at different concentrations for 48 h. Positive and negative controls were doxorubicin (Pfizer, New York, NYC, USA) and acetone or DMSO, respectively. After that, the wells were rinsed with phosphate-buffered saline (PBS, Sigma) and 200 µL of fresh medium was poured into the wells. Thirty microlitres (5 mg/mL) of MTT (Sigma) dissolved in PBS was added to each well, and the plates were incubated at 37 °C for 4 h. The medium from the wells was removed, rinsed, and 50 µL of 100% DMSO was added to the wells. At a wavelength of 570 nm, absorbance was measured using a microplate reader (BioTek Synergy, Beijing, China). Each sample concentration was tested in quadruplicate in two repeats (n = 8), and the concentration causing 50% inhibition of cell viability (LC50) was calculated. Selectivity index (SI) values for the extracts/compounds were obtained by dividing cytotoxicity LC50 values of normal (Vero) cells by those of the cancer cells.
# [17] = system: Huh7 cells; parameters: method as in ref 66 = [66]; 66. NCCLS 2007 Available online: http://www.nccls.org (accessed on 15 March 2022); details: cited from earlier work
# [18] = parameters: method as in PMID 22693528; details: cited from earlier work
# [19] = system: Candida albicans; parameters: method as in PMID 22693528; details: cited from earlier work
# [20] = system: Enterococcus faecium UCLA 192; parameters: method as in PMID 31119085; details: cited from earlier work
# [21] = parameters: method as in PMID 23878606; details: read-out: EC50 scavenging ABTS; cited from earlier work
# [22] = system: Stenotrophomonas maltophila DMST 19079; parameters: method as in PMID 31119085; details: cited from earlier work
# [23] = parameters: method as in PMID 23878606; details: read-out: EC50 scavenging DPPH; cited from earlier work
# [24] = system: Staphylococcus aureus ATCC 43300; parameters: method as in PMID 31119085; details: cited from earlier work
# [25] = system: one fungal and five bacterial strains; assay: Serial dilution microplate MIC, whole panel; type: cell-based; details: isolated compounds, highest concentration 250 µg/mL
# Description: as §1
# [26] = system: IL-6 production; parameters: method as in PMID 25573777; details: TNF-α stimulated MG-63 cells; cited from earlier work
# [27] = system: Staphylococcus aureus; parameters: method as in PMID 19007012; details: filter paper slice method; cited from earlier work
# [28] = isolated compounds, Table 2, read-out: Minimum inhibitory concentration (MIC) S. Typhimurium
Compound,MIC [6],Selectivity index E. coli [6],"MIC ([7]; ATCC29213, isolated compounds)",Selectivity index S. aureus [7],"MIC ([8]; ATCC29212, isolated compounds)",Selectivity index E. faecalis [8],"MIC [9, 28]",Selectivity index S. Typhimurium ([9]; Table 2),"MIC ([10]; ATCC27853, isolated compounds)",Selectivity index P. aeruginosa [10],"MIC ([12]; ATCC10231, isolated compounds)",Selectivity index C. albicans [12],"CC50 at 48 h ([16]; monkey, LC50)",also measured
C=C1C(=O)O[C@@H]2C[C@@]3(C)CCCC(=C)[C@@H]3C[C@H]12 [Isoalantolactone],,,,,,,,,,,,,,IC50 [1]: 8.15 ± 1.16 µM
C[C@@H]1CC[C@H]2[C@@H](C)C(=O)O[C@@H]3O[C@@]4(C)CC[C@@H]1[C@]32OO4 [Artemisinin],,,,,,,,,,,,,,MIC S. aureus [2]: 90 µg/mL; MIC B. subtilis [3]: 90 µg/mL; MIC Salmonella sp. [4]: 90 µg/mL
"CC[C@@H](CC[C@@H](C)[C@H]1CC[C@H]2[C@@H]3CC=C4C[C@@H](O[C@H]5O[C@@H](CO)[C@H](O)[C@@H](O)[C@@H]5O)CC[C@]4(C)[C@H]3CC[C@]12C)C(C)C [Sitosterol-3-O-β-D-glucopyranoside, sitosterol-3-O-β-D-glucopyranoside]",> 250 µg/mL,< 0.8,> 250 µg/mL,< 0.8,31.2 µg/mL,> 6.4,> 250 µg/mL,< 0.8,> 250 µg/mL,< 0.8,250 µg/mL,> 0.8,> 200 µg/mL,Cytotoxic effects on normal human primary fibroblasts [5]: not against normal human primary fibroblasts; Selectivity index E. faecalis ([8]; listed as sitosterol-3-O-β-D-glucopyranoside): more than 6; MIC E. faecalis [11]: 15 µg/mL; IC50 proliferation of HepG2 cells [13]: 4.64 ± 0.48 µg/mL; Anti-bacterial and anti-fungal activity [14]: wide spectrum of anti-bacterial and anti-fungal activity; MIC P. aeruginosa [15]: 10 µg/mL; IC50 proliferation of Huh7 cells [17]: 5.25 ± 0.14 µg/mL
"COc1cc2ccc(=O)oc2cc1O [Scopoletin, scopoletin]",62.5 µg/mL,> 3.2,250 µg/mL,> 0.8,,,,> 1.6,,< 0.8,,> 0.8,,"IC50 DPPH radical [18]: 1.24 µg/mL; Activity against Candida albicans [19]: ineffective; MIC Enterococcus faecium UCLA 192 [20]: 128 µg/mL; Selectivity index E. coli ([6]; listed as scopoletin): 3; MIC ([7]; ATCC29213, 24 h, isolated compounds): 250 µg/mL; MIC ([8]; ATCC29212, 24 h, isolated compounds): 250 µg/mL; MIC ([9]; read-out: Minimum inhibitory concentration (MIC) S. Typhimurium, isolated compounds, Table 2): 125 µg/mL; MIC ([10]; ATCC27853, 24 h, isolated compounds): > 250 µg/mL; EC50 [21]: 191.51 ± 0.01 µM; MIC Stenotrophomonas maltophila DMST 19079 [22]: 256 µg/mL; MIC ([12]; ATCC10231, 24 h, isolated compounds): 250 µg/mL; EC50 [23]: 647.89 ± 0.07 µM; MIC Staphylococcus aureus ATCC 43300 [24]: 128 µg/mL; CC50 at 48 h [16]: > 200 µg/mL"
"COc1cc2ccc(=O)oc2c(OC)c1O[C@H]1O[C@@H](CO)[C@H](O)[C@@H](O)[C@@H]1O [Isofraxidin-7-O-β-D-glucopyranoside, isofraxidin-7-O-β-D-glucopyranoside]",250 µg/mL,> 0.8,250 µg/mL,> 0.8,> 250 µg/mL,< 0.8,250 µg/mL,> 0.8,> 250 µg/mL,< 0.8,250 µg/mL,> 0.8,> 200 µg/mL,"MIC ([25]; all tested strains, read-out: MIC against all tested microorganisms): ≥ 250 µg/mL; MIC against all tested microorganisms [25]: no efficacy; Inhibitory activity against IL-6 production [26]: 14%; Anti-bacterial effect against Staphylococcus aureus [27]: no activity"
